Legend:
Format in all cases: cell-based, male Sprague-Dawley rat
[1] = test system: NHSC (non-induced hepatic stellate cells); test: Oil red O staining of lipid droplets; conditions: curcumin 25 μM, 12 and 24 h, compared to BL extract treated cells
Procedure: (§1) Non-induced hepatic stellate cells (NHSC, purity >95%) were isolated from male Sprague-Dawley rat liver, and Thioacetamide (TAA; Fluka Chemie GmbH, Buchs, Switzerland)-induced hepatic stellate cells (THSC, purity >95%) were isolated from TAA-induced fibrotic liver of male Sprague-Dawley rat (Chang et al., 2009). Both cells were maintained in complete DMEM containing 10% heat-inactivated FBS and 1% penicillin/streptomycin. NHSC and THSC cells (1×10^5 cells) were seeded in 6 well plates and incubated at 37° C. overnight. Then, cells were treated with various concentrations of BL extract (100, 250, and 500 μg/ml) or curcumin (25 μM) for 12 and 24 h. Cells were washed twice with PBS and fixed with pre-warmed 3.7% paraformaldehyde for 10 min. Cells were then stained with diluted Oil red O stock solution 0.5% (w/v) in isopropanol (Fluka; buffer/water=3/2) at room temperature for 1 h under the dark. Cells were washed with 50% isopropanol and counter-stained with Hematoxylin (Sigma-Aldrich) for 1 min. Results were photographed using Olympus CKX-41 (Olympus Corporation, Tokyo, Japan). Two kinds of hepatic stellate cells were used; that is, Non-chemical induced hepatic stellate cells (NHSC), and thioacetamide-induced hepatic stellate cells (THSC) for imitating a naturally-occurred activated HSC. […]

[2] = test system: THSC (thioacetamide-induced hepatic stellate cells); test: Oil red O staining of lipid droplets; conditions: curcumin 25 μM, 12 and 24 h, compared to BL extract treated cells
Procedure: as §1

NHSC = test: Western blotting of protein expression levels; conditions: curcumin 25 μM
Procedure: (§2) Non-induced hepatic stellate cells (NHSC, purity >95%) were isolated from male Sprague-Dawley rat liver, and Thioacetamide (TAA; Fluka Chemie GmbH, Buchs, Switzerland)-induced hepatic stellate cells (THSC, purity >95%) were isolated from TAA-induced fibrotic liver of male Sprague-Dawley rat (Chang et al., 2009). Both cells were maintained in complete DMEM containing 10% heat-inactivated FBS and 1% penicillin/streptomycin. NHSC and THSC (5×10^5 cells) were seeded in 6 cm dish and grown till 80% confluence, and then incubated with various concentrations of BL extract (100, 250, and 500 μg/ml) or curcumin (25 μM) for 12 and 24 h. Cells were collected and lysed with RIPA buffer (150 mM NaCl, 0.1% Triton X-100, 0.5% sodium deoxycholate, 0.1% SDS, 50 mM Tris-HCl, pH 8.0). Protease inhibitor (Roche Applied Science, Mannheim, Germany) containing pancreas extract, thermolysin, chymotrypsin, trypsin, and papain was mixed with 50 ml RIPA buffer before use. Protein samples (30 μg/well) were loaded and separated with SDS-PAGE, and then transferred to PVDF membrane (PerkinElmer, Turku, Finland). The membrane was blocked with 5% non-fat milk in TBST (20 mM Tris-HCl, pH 7.4, 137 mM NaCl, and 0.05% Tween-20) at room temperature for 1 h. The membranes were incubated with primary antibodies (Table 1) at 4° C. overnight. The membranes were washed 3 times with TBST and then incubated with horseradish peroxidase (HRP)-conjugated secondary antibodies at room temperature for 1 h. Following incubation with HRP-conjugated secondary antibodies, membranes were treated with ECL reagents (PerkinElmer) for 1 min, and results were developed on LAS-3000 film (Fujifilm, Tokyo, Japan).

THSC = test: Western blotting of protein expression levels; conditions: curcumin 25 μM
Procedure: as §2

MMP2 [3] = test: MMP2 level (gelatin zymography) in NHSC; conditions: curcumin 25 μM
Procedure: (§3) Protein expression level was determined by western blotting and normalized with β-actin. Data are normalized to normal control (N) and expressed as mean±SEM in triplicate determinations. a, vs. N; b, vs. Cur. *, p<0.05; **, p<0.01; ***, p<0.001. Non-induced hepatic stellate cells (NHSC, purity >95%) were isolated from male Sprague-Dawley rat liver, and Thioacetamide (TAA; Fluka Chemie GmbH, Buchs, Switzerland)-induced hepatic stellate cells (THSC, purity >95%) were isolated from TAA-induced fibrotic liver of male Sprague-Dawley rat (Chang et al., 2009). Both cells were maintained in complete DMEM containing 10% heat-inactivated FBS and 1% penicillin/streptomycin. The activity of MMP2 was assayed by gelatine zymography, which can detect the active form and latent form of MMP2. NHSC and THSC (2×10^5 cells) were seeded in 6 well plates and incubated for 70 to 80% confluence. Cells were starved in DMEM containing 0.1% BSA for 6 h, and then treated with various concentrations of BL extract (100, 250, and 500 μg/ml) or curcumin (25 μM) for 12 and 24 h. Media were collected and centrifuged at 12,000×g for 30 min at 4° C. The supernatants were collected and protein concentration was quantified by Bradford dye (Bio-Rad). 8% SDS-PAGE gels were prepared containing 10% gelatin. […] Gels were scanned using Epson scanner and quantified using multi-gauge software (Fujifilm).

MMP2 [4] = test: MMP2 level (gelatin zymography) in THSC; conditions: curcumin 25 μM, except 24 h treatment
Procedure: as §3

COc1cc(/C=C/C(=O)CC(=O)/C=C/c2ccc(O)c(OC)c2)ccc1O [curcumin]
lipid droplets (Oil red O) [1]: Fewer lipid droplets were increased | lipid droplets (Oil red O) [2]: Fewer lipid droplets were increased | Col 1 expression level (NHSC): failed to reduce | TGF-β1 level (NHSC): cannot reduce | TGF-β R1 level (NHSC): significantly reduced | α-SMA expression level (NHSC): failed to reduce | expression level of TIMP2 (NHSC; 24 h, vs normal control): significantly reduced | expression level of TIMP2 (THSC; 24 h, vs normal control): significantly reduced | Col 1 expression level (THSC; except 24 h treatment): failed to reduce | TGF-β1 level (THSC; except 24 h treatment): cannot reduce | α-SMA expression level (THSC; except 24 h treatment): failed to reduce | expression level of MMP2 (MMP2 [3]): can reduce | expression level of MMP2 (MMP2 [4]): can reduce
